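Values below derive from 48-hour exposures of cells grown in 96-well plates, with endpoints linearly interpolated between the two concentrations bracketing the appropriate inhibition level. The concentration for full growth arrest is given as TGI.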 *1 amine or outer side, *2 acyl side, *3 side chain or, on linkers, in order; H or OH if unused. Where a SMILES comes first, the peptide text is derived from it. Bridges are numbered along the chain shown (N, C = ends). Roman numbers before positions name the chains, in order. [ ]: non-standard residue; d: D form. Actinocin(9to1) = Cc1c2oc3c(C)ccc(C(=O)[*:1])c3nc-2c(C(=O)[*:2])c(N)c1=O; NMeH = CN[CH](Cc1c[nH]cn1)C(=O)O; Sar = CNCC(=O)O
Columns and labels:
Assay in all cases: NCI tumour cell line growth inhibition, 48 h
NCI-H522 lung = system: NCI-H522 lung
M19-MEL melanoma = system: M19-MEL melanoma
SF-539 CNS = system: SF-539 CNS
KM20L2 colon = system: KM20L2 colon
HOP-18 NSCLC = system: HOP-18 NSCLC
DLD-1 colon = system: DLD-1 colon
DMS 273 small cell lung = system: DMS 273 small cell lung
XF 498 CNS = system: XF 498 CNS
KM12 colon = system: KM12 colon
SR leukemia = system: SR leukemia
SNB-78 CNS = system: SNB-78 CNS
OVCAR-4 ovarian = system: OVCAR-4 ovarian
SN12K1 renal = system: SN12K1 renal
P388/ADR leukemia = system: P388/ADR leukemia
P388 leukemia = system: P388 leukemia
MDA-MB-435 = system: MDA-MB-435

SMILES | TGI (NCI-H522 lung) [µM] | TGI (M19-MEL melanoma) [µM] | TGI (SF-539 CNS) [µM] | TGI (KM20L2 colon) [µM] | TGI (HOP-18 NSCLC) [µM] | TGI (DLD-1 colon) [µM] | TGI (DMS 273 small cell lung) [µM] | TGI (XF 498 CNS) [µM] | TGI (KM12 colon) [µM] | TGI (SR leukemia) [µM] | TGI (SNB-78 CNS) [µM] | TGI (OVCAR-4 ovarian) [µM] | TGI (SN12K1 renal) [µM] | TGI (P388/ADR leukemia) [µM] | TGI (P388 leukemia) [µM] | TGI (MDA-MB-435) [µM]
O=C(O)CCC(=O)OCN1C(=O)C2C3C=CC(C2C1=O)C1C2C(=O)N(COC(=O)CCC(=O)O)C(=O)C2C31 (stereo unspecified) | > 85.8 | > 100 | > 100 | > 100 | > 100 | > 100 | > 58.2 | > 100 | > 100 | 52.4 | > 100 | > 100 | – | – | – | –
O=C(CCN1CCOCC1)/C(=C/c1ccccc1)c1ccccc1 | 3.84 | 14.1 | 9.31 | 15.1 | 30.6 | 4.04 | 21.4 | 19.1 | 16.5 | – | 21.3 | 23.8 | 10.9 | 3.99 | 12.4 | –
Cc1ccc(S(=O)(=O)NC(CCC(=O)NNc2ccccc2)C(=O)NNc2ccccc2)cc1 (stereo unspecified) | > 100 | – | > 100 | – | – | – | – | – | > 100 | > 100 | – | 99.2 | – | – | – | > 100
CC(C)(C)OC(=O)N/C(C=O)=C\C1CCCCC1 | > 100 | – | 87.6 | – | – | – | – | – | 77.6 | 42.8 | – | 97.8 | – | – | – | 49.5
CCCCc1ccc(Nc2ncc3ncn(COCCO)c3n2)cc1 | > 100 | – | > 100 | – | – | – | – | – | 99.1 | 52.5 | – | > 100 | – | – | – | 87.5
COC(=O)C1CC2(C)C=CC1N(C(=O)OCc1ccccc1)C2 (stereo unspecified) | > 100 | – | > 100 | – | – | – | – | – | > 100 | > 100 | – | > 100 | – | – | – | > 100
C=C(C(=O)O[C@H]1C/C(C)=C/CC/C(CO)=C/[C@H]2C(=O)OC(=C)[C@H]12)C(O)CO (stereo partly specified) | 3.3 | – | 10.4 | – | – | – | – | – | 42.3 | 6.81 | – | 46.9 | – | – | – | 26.3
COc1cc2ccc(C(=O)NCCCNC(=O)c3ccc4cc(OC)c(OC)cc4c3)cc2cc1OC | > 100 | – | > 100 | – | – | – | – | – | > 100 | > 100 | – | > 100 | – | – | – | > 100
Cc1c2oc3c(C)ccc(C(=O)NC4C(=O)NC(C(C)C)C(=O)N5CCCC5C(=O)N(C)CC(=O)N(C)C(Cc5cnc[nH]5)C(=O)OC4C)c3nc-2c(C(=O)NC2C(=O)NC(C(C)C)C(=O)N3CCCC3C(=O)N(C)CC(=O)N(C)C(Cc3cnc[nH]3)C(=O)OC2C)c(N)c1=O (stereo unspecified) (I: TVP[Sar][NMeH] / II: TVP[Sar][NMeH]; ester I:1-I:C, II:1-II:C; linker I:N-II:N via Actinocin(9to1); configuration not given here) | > 100 | – | > 100 | – | – | – | – | – | > 100 | > 100 | – | > 100 | – | – | – | > 100
N#Cc1c(-c2ccc(Cl)cc2)cc(-c2ccc(Nc3ccnc4cc(Cl)ccc34)cc2)[nH]c1=O | > 100 | – | > 100 | – | – | – | – | – | > 100 | > 100 | – | > 100 | – | – | – | > 100
COc1ccc(-n2c(=O)c3[nH]c(=S)[nH]c3n(-c3ccc(OC)cc3)c2=S)cc1 | > 100 | – | > 100 | – | – | – | – | – | > 100 | > 100 | – | > 100 | – | – | – | > 100
CCOC(=O)/C(C(N)=O)=C(\O)C(=O)/C(Br)=C(\O)c1ccccc1 | 3.7 | – | 36.5 | – | – | – | – | – | 35.3 | 12.1 | – | 56.5 | – | – | – | 31.6
COc1ccccc1-n1c(=O)n(C)c(=O)n1C(C)(C)C | > 100 | – | > 100 | – | – | – | – | – | > 100 | > 100 | – | > 100 | – | – | – | > 100
CC(=O)n1cc(C2CC23N=C(c2ccccc2)OC3=O)c2ccccc21 (stereo unspecified) | 37.3 | – | 41.2 | – | – | – | – | – | 48.7 | 40.3 | – | 42.4 | – | – | – | 72.9
CC(C)(C)OC(=O)[C@@H]1CCC(=O)N1C1(c2ccccc2)c2ccccc2-c2ccccc21 | 94 | – | 35.7 | – | – | – | – | – | > 100 | 62.3 | – | > 100 | – | – | – | > 100
Cc1cc(S(=O)(=O)Nc2nc3ncccc3[nH]2)c(S)cc1Cl | > 100 | – | > 100 | – | – | – | – | – | > 100 | > 100 | – | > 100 | – | – | – | > 100
Cc1ccc(S(=O)(=O)N2C[C@@H]3CC[C@]4(CO[Si](C)(C)C(C)(C)C)N[C@@H](c5ccccc5)[C@H]2[C@H]34)cc1 | > 100 | – | > 100 | – | – | – | – | – | > 100 | > 100 | – | > 100 | – | – | – | > 100
